Broadly, the inhibition is the percentage by which the read-out fell short of the control. The term IC50 denotes the concentration that inhibits the measured activity by half.

The source of these data is paper PMC6930503, “Antiviral, Antimicrobial and Antibiofilm Activity of Selenoesters and Selenoanhydrides” (Molecules, 2019).

For data set [1], the system named is Candida albicans ATCC 10231. The following applies: reference, range calculated from data in bibliography; cited from earlier work.
The test system of data set [2] is Candida krusei ATCC 14243. The settings on record: reference, range calculated from data in bibliography; cited from earlier work.
For data set [3], the system named is Candida parapsilosis ATCC 22019. The settings on record: reference, range calculated from data in bibliography; cited from earlier work.
Data set [4] concerns S. aureus ATCC 25923. As to the kind of experiment: Biofilm formation assay with crystal violet. The data set is classed as cell-based. The following applies: Staphylococcus aureus, ATCC25923; compound at 50 μM, 48 h. On the procedure: The biofilm-forming ability of S. Typhimurium and S. aureus ATCC strains was studied in 96-well microtiter plates, using Luria-Bertani (LB) broth without salt (S. Typhimurium) or tryptic soy broth TSB (S. aureus) in the presence of selenocompounds. Initially, overnight cultures were diluted to an optical density (OD) of 0.1 at 600 nm and then added to each well, with the exception of the medium control wells and compounds were added individually at ½ MIC. The final volume was 200 μL in each well. Plates were incubated at 30 °C, for 48 h, with gentle agitation (100 rpm). After the incubation period, the medium was discarded, and the plate was washed with tap water, to remove unattached cells. Then, 200 μL of crystal violet (CV; 0.1% [v/v]) was added to the wells and incubated for 15 min at room temperature. CV was removed from the wells, and the plate was washed again with tap water. Then, 200 μL of 70% ethanol was added to each well, and the biofilm formation was determined by measuring the OD at 600 nm, using a FLUOstar Optima plate reader (BMG Labtech, Aylesbury, UK). The antibiofilm effect of selenocompounds was expressed in the percentage (%) decrease in biofilm formation. The assay was repeated a minimum of three times. The results were analyzed by using the t-test and p-values of <0.05 were considered significant.

Data set [5] relates to S. aureus ATCC 25923. As to the kind of experiment: Antibiofilm effect in combination with ciprofloxacin. The class given is cell-based, Staphylococcus aureus. The following applies: CIP at 1.6 µM, compound at ½ MIC. As for the experimental part: (§1) […]; 4, 5, 7, 8 and 9 for S. Typhimurium).
(§2) […]. The effect was determined by two-fold broth microdilution method in 96-well plates, using serial dilutions of TET and CIP. The first four rows contained two-fold dilutions of antibiotics, and combinations of the antibiotics and tested compounds were added into the last four rows. The overnight bacterial cultures were diluted to an OD of 0.1 at 600 nm and then added to each well, in 50 μL LB, without salt or TSB, with the exception of the medium control wells. The plates were then incubated at 30 °C, for 48 h, with gentle agitation (100 rpm), and the biofilm formation was determined by measuring the OD at 600 nm, using a FLUOstar Optima plate reader. The antibiofilm effect of antibiotic alone and in combination with selenocompounds was expressed in the percentage (%) of decrease in biofilm formation. The results were analyzed by using the t-test and p-values of <0.05 were considered significant.

The test system of data set [6] is S. enterica serovar Typhimurium 14028s. The experiment in a line: Antibiofilm effect in combination with tetracycline. The settings on record: 2.5 µM of TET, compound at ½ MIC. The class given is cell-based, Salmonella enterica serovar Typhimurium. As for the experimental part:
as §1, §2

The nature of data set [7]: MTT cytotoxicity assay on Vero cells. The following applies: African green monkey. (Tetrazolium dyes change colour on reduction, which living cells bring about.)
Data set [8] relates to HSV-2. The experiment in a line: Anti-HSV-2 activity by qPCR in infected Vero cells.
For data set [9], the system named is selected pathogenic yeasts. The experiment in a line: Antifungal disk-diffusion screening, overall statement on all evaluated strains. The settings on record: 200 µM and 10 mM on disk. (In agar diffusion tests the substance spreads into inoculated agar from a disc or well.)
Description: Disk diffusion. The antifungal activity of the selenocompounds against selected pathogenic yeasts were screened, measuring their inhibition zones [49]. Solutions of the selenocompounds were set at two concentrations: 200 µM (from a 10 mM stock solution) and 10 mM. The sterile filter paper discs (diameter (D) 6 mm) impregnated with the solutions (10 µL of solutions) were placed on Saboraud Dextrose Agar (SDA), inoculated with the respective suspensions of yeasts (inocula of 0.5 McFarland’s standard). The solvent (DMSO) served as negative control, and an additional plate was inoculated without disks, to serve as growth control. The inocula were used within 15 min of preparation, the disks were applied within 15 min of inoculating the plates, and incubation started within 15 min of application of the disks (according to EUCAST standards). The plates were then incubated for 72 h, under aerobic conditions, at 37 °C. Inhibition zone diameters generated by the tested compounds (including the diameter of the disc) were measured. All experiments were performed in triplicate.

Take `CC[C@H](C)C[C@H](C)CCCCCCCCC(=O)N[C@H]1C[C@@H](O)[C@@H](NCCN)NC(=O)[C@@H]2[C@@H](O)CCN2C(=O)[C@H]([C@H](O)CCN)NC(=O)[C@H]([C@H](O)[C@@H](O)c2ccc(O)cc2)NC(=O)[C@@H]2C[C@@H](O)CN2C(=O)[C@H]([C@@H](C)O)NC1=O` [CSP, caspofungin]: the Minimal inhibitory concentration is at most 0.007 to 0.110 µM in data set [1], 0.055 to 0.229 µM in data set [2] and 0.110 to 1.83 µM in [3].
Compound `COC(=O)C[Se]C(=O)c1ccc(Cl)cc1` [Compound 7] registered an inhibition at 50 µM in data set [4] above 70%. Besides, the “effect on the antibiofilm activity of CIP” value in [5] was “significantly increased the activity of CIP”. In addition, the “effect on the antibiofilm activity of TET compared to TET alone” value in data set [6] is recorded as “significantly reduced the activity of the antibiotic”. Besides, in data set [7], the IC50 at 24 h is above 100 µM. The minimal effective concentration in data set [8] (Human alphaherpesvirus 2, Vero, 24 h, read-out: lowest concentration with (significant) antiviral activity against HSV-2, Vero cells infected with HSV-2, MOI 0.01, qPCR after 24 h) is 12.5 µM. Further, in [8] (Vero IC50 / antiviral concentration), the “antiviral activity at concentration x-fold lower than the cytotoxic concentration (IC50 in Vero cells)” value is on record as 8 fold. Also, in data set [8] (Vero cells infected with HSV-2, qPCR), the “concentration at which replication of HSV-2 was completely inhibited” value turned out to be 50 µM. In addition, the “antifungal activity in the disk-diffusion assay (in words)” value in data set [9] was “did not show antifungal activity”.
